Measurements: patent publication EP0082731A1, “The use of peptides as medicaments” (NOVO INDUSTRI A/S, priority 1981, dated 1983)

Columns and labels:
[1] = test system: isolated perfused rat pancreas; experiment: IRI (insulin) release from the isolated perfused rat pancreas
Description: Such a use should be especially safe as no hypoglycaemia will occur during treatment because of the lack of IRI releasing effect in the presence of hypoglycaemia and normoglycaemia.
Furthermore, it is stated therein that compounds of formula I show no or minor, negligible metabolic effects. […] Based thereupon it is surprising that compounds of formula I have an insulin releasing effect on animals primed with glucose corresponding to hyperglycaemia.

[2] = test system: isolated perfused rat pancreas; details: known effect of glucagon; cited from earlier work
Normoglycaemic Rats = experiment: Experiment D: effect on plasma glucose and plasma IRI levels in normoglycaemic rats; assay type: in vivo, Wistar rats; details: normally fed rats; for Blood glucose / Plasma IRI: i.v. injection at 0 min, equimolar doses (glucagon 1 mg/kg, glucagon(1-21) 0.77 mg/kg), mean, N = 10
Protocol: Glucagon (-1 mg/kg) and an equimolar dosis of glucagon(1-21), i.e. 0.77 mg/kg, were injected intravenously at the beginning time (time: 0 minutes) to normally fed male Wistar rats weighing 150 g (+/- 5 g). Blood samples were taken from the orbital plexus at the times -5, 2, 5, 10, 15, 30, and 60 minutes. Blood glucose was assayed according to the hexokinase method and plasma insulin was assayed by RIA. […] Contrary to glucagon, glucagon(1-21) had no effect on these parameters. Mean blood glucose values (N = 10) are stated in Table VI below, and mean plasma IRI values (N = 10) are stated in Table VII below.

rat free fat cells = experiment: Lipolytic effect on rat free fat cells in vitro; assay type: cell-based; details: compared with glucagon
rats = experiment: Metabolic effects after administration to normally fasted and fed rats in vivo
[3] = i.v., glucagon 1 mg/kg, glucagon(1-21) 0.77 mg/kg
[4] = buffer glucose concentration 2.0 mg/ml

In the case of Glucagon [reference compound], the insulin releasing effect ([1]; at hyperglycaemia) is given as “have this effect”, the insulin releasing effect ([1]; in the presence of normoglycaemia and hypoglycaemia) is given as “has an insulin releasing effect” and the insulin release [2] is given as “releases insulin”. For the same substance, the Blood glucose (Normoglycaemic Rats; time 2 min) was 1.2 mg/mL, the “Plasma IRI” value (Normoglycaemic Rats; time 2 min) was 95 µU/ml and the Blood glucose (Normoglycaemic Rats; time 5 min) was 1.3 mg/mL. For the same substance, the “Plasma IRI” value (Normoglycaemic Rats; time 5 min) was 98 µU/ml, the Blood glucose (Normoglycaemic Rats; time 10 min) was 1.3 mg/mL and the “Plasma IRI” value (Normoglycaemic Rats; time 10 min) was 82 µU/ml. For the same substance, the Blood glucose (Normoglycaemic Rats; time 15 min) was 1.4 mg/mL, the “Plasma IRI” value (Normoglycaemic Rats; time 15 min) was 67 µU/ml and the Blood glucose (Normoglycaemic Rats; time 30 min) was 1.5 mg/mL. For the same substance, the “Plasma IRI” value (Normoglycaemic Rats; time 30 min) was 53 µU/ml, the Blood glucose (Normoglycaemic Rats; time 60 min) was 1.1 mg/mL and the “Plasma IRI” value (Normoglycaemic Rats; time 60 min) was 17 µU/ml. The Blood glucose (Normoglycaemic Rats; time -5 min) was 0.9 mg/mL, the “Plasma IRI” value (Normoglycaemic Rats; time -5 min) was 19 µU/ml and the “effect on blood glucose” value (Normoglycaemic Rats; [3]) was “significantly increasing effect”. For the same substance, the “effect on plasma IRI” value (Normoglycaemic Rats; [3]) was “significantly increasing effect”.
In the case of “des-pentapeptide-(22-26)-glucagon [des(22-26)glucagon]”, the insulin releasing effect ([1]; at hyperglycaemia) is reported as “have this effect”, the insulin releasing effect [1, 4] is reported as “possesses an insulin releasing effect” and the lipolytic effect (rat free fat cells) is reported as “negligible”. The metabolic effects (rats) was “No metabolic effects have been found”.
With “glucagon(1-26) (HSQGTFTSDYSKYLDSRRAQDFVQWL; Glucagon; UniProt P01275 53-78, looked up, fragment)” the insulin releasing effect ([1]; at hyperglycaemia) was “have this effect”, the insulin releasing effect [1, 4] was “possesses an insulin releasing effect” and the lipolytic effect (rat free fat cells) was “negligible”. The metabolic effects (rats) was “No metabolic effects have been found”.
